Reference: patent publication US9499550B2 (BRISTOL-MYERS SQUIBB COMPANY, priority 2012, dated 2016)
Read-outs that look alike come from different tables or passages of the source.

What was measured:
[1] = test system: HCV genotype 1a (H77 strain) replicon in HUH-7 cells; experiment: HCV replicon luciferase reporter assay, genotype 1a; assay type: cell-based; conditions: Hepatitis C virus, Huh-7, 72 h, HCV genotype 1a replicon luciferase assay, 3 days incubation
Summary of the method: (§1)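 Replicon inhibition for both genotypes was measured as Renilla luciferase signal (EnduRen, 7.5 μM final, 2 h) after 3-day, 37° C exposure of replicon-bearing HUH-7 cells in 4% FCS DMEM, 0.5% DMSO. The 1b construct carries S1179I; the 1a H77 construct carries P1496L and S2204I. Twenty-point, 3-fold dilutions were fitted four-parametrically for EC50, and CC50 was taken from multiplexed Cell Titer-Blue.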

[2] = test system: HCV genotype 1b (Con1) replicon in HUH-7 cells; experiment: HCV replicon luciferase reporter assay, genotype 1b; assay type: cell-based; conditions: Hepatitis C virus, Huh-7, 72 h, HCV genotype 1b replicon luciferase assay, 3 days incubation
Summary of the method: as §1

[3] = range class, read-out: LE_1a (EC50, range)
[4] = range class, read-out: LE_1b (EC50, range)

Structure (SMILES)	EC50 [1, 3] [nM]	EC50 ([1]; read-out: LE_1a (EC50)) [nM]	EC50 [2, 4] [nM]	EC50 ([2]; read-out: LE_1b (EC50)) [nM]
COCCn1nc(O[C@@H]2C[C@H]3C(=O)N[C@]4(C(=O)NS(=O)(=O)C5CC5)C[C@H]4/C=C\CC[C@H](C)C[C@@H](C)[C@H](NC(=O)OC(C)(C)C)C(=O)N3C2)c2ccccc2c1=O [Compound 1007, tert-butyl ((2R,6S,7R,9S,13aS,14aR,16aS,Z)-14a-((cyclopropylsulfonyl)carbamoyl)-2-((3-(2-methoxyethyl)-4-oxo-3,4-dihydrophthalazin-1-yl)oxy)-7,9-dimethyl-5,16-dioxo-1,2,3,5,6,7,8,9,10,11,13a,14,14a,15,16,16a-hexadecahydrocyclopropa[e]pyrrolo[1,2-a][1,4]diazacyclopentadecin-6-yl)carbamate]	> 87.4	≥ 1000	> 87.4	438
COCCn1nc(O[C@@H]2C[C@H]3C(=O)N[C@]4(C(=O)NS(=O)(=O)C5CC5)C[C@H]4/C=C\CC[C@@H](C)C[C@@H](C)[C@H](NC(=O)OC(C)(C)C)C(=O)N3C2)c2ccccc2c1=O [Compound 1008, tert-butyl ((2R,6S,7R,9R,13aS,14aR,16aS,Z)-14a-((cyclopropylsulfonyl)carbamoyl)-2-((3-(2-methoxyethyl)-4-oxo-3,4-dihydrophthalazin-1-yl)oxy)-7,9-dimethyl-5,16-dioxo-1,2,3,5,6,7,8,9,10,11,13a,14,14a,15,16,16a-hexadecahydrocyclopropa[e]pyrrolo[1,2-a][1,4]diazacyclopentadecin-6-yl)carbamate]	4.82 to 103		4.82 to 103	
CC(C)n1nc(O[C@@H]2C[C@H]3C(=O)N[C@]4(C(=O)NS(=O)(=O)C5CC5)C[C@H]4/C=C\CC[C@H](C)C[C@@H](C)[C@H](NC(=O)OC(C)(C)C(F)(F)F)C(=O)N3C2)c2ccccc2c1=O [Compound 1009, 1,1,1-trifluoro-2-methylpropan-2-yl((2R,6S,7R,9S,13aS,14aR,16aS,Z)-14a-((cyclopropylsulfonyl)carbamoyl)-2-((3-isopropyl-4-oxo-3,4-dihydrophthalazin-1-yl)oxy)-7,9-dimethyl-5,16-dioxo-1,2,3,5,6,7,8,9,10,11,13a,14,14a,15,16,16a-hexadecahydrocyclopropa[e]pyrrolo[1,2-a][1,4]diazacyclopentadecin-6-yl)carbamate]	> 87.4		> 87.4	
CC(C)n1nc(O[C@@H]2C[C@H]3C(=O)N[C@]4(C(=O)NS(=O)(=O)C5CC5)C[C@H]4/C=C\CC[C@@H](C)C[C@@H](C)[C@H](NC(=O)OC(C)(C)C(F)(F)F)C(=O)N3C2)c2ccccc2c1=O [Compound 1010, 1,1,1-trifluoro-2-methylpropan-2-yl((2R,6S,7R,9R,13aS,14aR,16aS,Z)-14a-((cyclopropylsulfonyl)carbamoyl)-2-((3-isopropyl-4-oxo-3,4-dihydrophthalazin-1-yl)oxy)-7,9-dimethyl-5,16-dioxo-1,2,3,5,6,7,8,9,10,11,13a,14,14a,15,16,16a-hexadecahydrocyclopropa[e]pyrrolo[1,2-a][1,4]diazacyclopentadecin-6-yl)carbamate]	4.82 to 103		4.82 to 103	
CC(C)n1nc(O[C@@H]2C[C@H]3C(=O)N[C@]4(C(=O)NS(=O)(=O)C5(C)CC5)C[C@H]4/C=C\CC[C@H](C)C[C@@H](C)[C@H](NC(=O)OC(C)(C)C(F)(F)F)C(=O)N3C2)c2ccccc2c1=O [Compound 1011, 1,1,1-trifluoro-2-methylpropan-2-yl((2R,6S,7R,9S,13aS,14aR,16aS,Z)-2-((3-isopropyl-4-oxo-3,4-dihydrophthalazin-1-yl)oxy)-7,9-dimethyl-14a-(((1-methylcyclopropyl)sulfonyl)carbamoyl)-5,16-dioxo-1,2,3,5,6,7,8,9,10,11,13a,14,14a,15,16,16a-hexadecahydrocyclopropa[e]pyrrolo[1,2-a][1,4]diazacyclopentadecin-6-yl)carbamate]	> 87.4	≥ 1000	> 87.4	362
CC(C)n1nc(O[C@@H]2C[C@H]3C(=O)N[C@]4(C(=O)NS(=O)(=O)C5(C)CC5)C[C@H]4/C=C\CC[C@@H](C)C[C@@H](C)[C@H](NC(=O)OC(C)(C)C(F)(F)F)C(=O)N3C2)c2ccccc2c1=O [Compound 1012, 1,1,1-trifluoro-2-methylpropan-2-yl((2R,6S,7R,9R,13aS,14aR,16aS,Z)-2-((3-isopropyl-4-oxo-3,4-dihydrophthalazin-1-yl)oxy)-7,9-dimethyl-14a-(((1-methylcyclopropyl)sulfonyl)carbamoyl)-5,16-dioxo-1,2,3,5,6,7,8,9,10,11,13a,14,14a,15,16,16a-hexadecahydrocyclopropa[e]pyrrolo[1,2-a][1,4]diazacyclopentadecin-6-yl)carbamate]	4.82 to 103		4.82 to 103	
COCCn1nc(O[C@@H]2C[C@H]3C(=O)N[C@]4(C(=O)NS(=O)(=O)C5(C)CC5)C[C@H]4/C=C\CC[C@@H](C)C[C@@H](C)[C@H](NC(=O)OC(C)(C)C(F)(F)F)C(=O)N3C2)c2ccccc2c1=O [Compound 1014, 1,1,1-trifluoro-2-methylpropan-2-yl((2R,6S,7R,9R,13aS,14aR,16aS,Z)-2-((3-(2-methoxyethyl)-4-oxo-3,4-dihydrophthalazin-1-yl)oxy)-7,9-dimethyl-14a-(((1-methylcyclopropyl)sulfonyl)carbamoyl)-5,16-dioxo-1,2,3,5,6,7,8,9,10,11,13a,14,14a,15,16,16a-hexadecahydrocyclopropa[e]pyrrolo[1,2-a][1,4]diazacyclopentadecin-6-yl)carbamate]	4.82 to 103		4.82 to 103	
CC(C)n1nc(O[C@@H]2C[C@H]3C(=O)N[C@]4(C(=O)NS(=O)(=O)C5(C)CC5)C[C@H]4/C=C\CC[C@H](C)C[C@@H](C)[C@H](NC(=O)OC(C)(C)C(C)(F)F)C(=O)N3C2)c2ccccc2c1=O [Compound 1015, 3,3-difluoro-2-methylbutan-2-yl((2R,6S,7R,9S,13aS,14aR,16aS,Z)-2-((3-isopropyl-4-oxo-3,4-dihydrophthalazin-1-yl)oxy)-7,9-dimethyl-14a-(((1-methylcyclopropyl)sulfonyl)carbamoyl)-5,16-dioxo-1,2,3,5,6,7,8,9,10,11,13a,14,14a,15,16,16a-hexadecahydrocyclopropa[e]pyrrolo[1,2-a][1,4]diazacyclopentadecin-6-yl)carbamate]	> 87.4		> 87.4	
CC(C)n1nc(O[C@@H]2C[C@H]3C(=O)N[C@]4(C(=O)NS(=O)(=O)C5(C)CC5)C[C@H]4/C=C\CC[C@@H](C)C[C@@H](C)[C@H](NC(=O)OC(C)(C)C(C)(F)F)C(=O)N3C2)c2ccccc2c1=O [Compound 1016, 3,3-difluoro-2-methylbutan-2-yl((2R,6S,7R,9R,13aS,14aR,16aS,Z)-2-((3-isopropyl-4-oxo-3,4-dihydrophthalazin-1-yl)oxy)-7,9-dimethyl-14a-(((1-methylcyclopropyl)sulfonyl)carbamoyl)-5,16-dioxo-1,2,3,5,6,7,8,9,10,11,13a,14,14a,15,16,16a-hexadecahydrocyclopropa[e]pyrrolo[1,2-a][1,4]diazacyclopentadecin-6-yl)carbamate]	4.82 to 103		4.82 to 103	
CC(C)n1nc(O[C@@H]2C[C@H]3C(=O)N[C@]4(C(=O)NS(=O)(=O)C5CC5)C[C@H]4/C=C\CC[C@H](C)C[C@@H](C)[C@H](NC(=O)OC(C)(C)C(C)(F)F)C(=O)N3C2)c2ccccc2c1=O [Compound 1017, 3,3-difluoro-2-methylbutan-2-yl((2R,6S,7R,9S,13aS,14aR,16aS,Z)-14a-((cyclopropylsulfonyl)carbamoyl)-2-((3-isopropyl-4-oxo-3,4-dihydrophthalazin-1-yl)oxy)-7,9-dimethyl-5,16-dioxo-1,2,3,5,6,7,8,9,10,11,13a,14,14a,15,16,16a-hexadecahydrocyclopropa[e]pyrrolo[1,2-a][1,4]diazacyclopentadecin-6-yl)carbamate]	> 87.4		> 87.4	
CC(C)n1nc(O[C@@H]2C[C@H]3C(=O)N[C@]4(C(=O)NS(=O)(=O)C5CC5)C[C@H]4/C=C\CC[C@@H](C)C[C@@H](C)[C@H](NC(=O)OC(C)(C)C(C)(F)F)C(=O)N3C2)c2ccccc2c1=O [Compound 1018, 3,3-difluoro-2-methylbutan-2-yl((2R,6S,7R,9R,13aS,14aR,16aS,Z)-14a-((cyclopropylsulfonyl)carbamoyl)-2-((3-isopropyl-4-oxo-3,4-dihydrophthalazin-1-yl)oxy)-7,9-dimethyl-5,16-dioxo-1,2,3,5,6,7,8,9,10,11,13a,14,14a,15,16,16a-hexadecahydrocyclopropa[e]pyrrolo[1,2-a][1,4]diazacyclopentadecin-6-yl)carbamate]	4.82 to 103		4.82 to 103	
COCCn1nc(O[C@@H]2C[C@H]3C(=O)N[C@]4(C(=O)NS(=O)(=O)C5(C)CC5)C[C@H]4/C=C\CC[C@H](C)C[C@@H](C)[C@H](NC(=O)OC(C)(C)C(C)(F)F)C(=O)N3C2)c2ccccc2c1=O [Compound 1019, 3,3-difluoro-2-methylbutan-2-yl((2R,6S,7R,9S,13aS,14aR,16aS,Z)-2-((3-(2-methoxyethyl)-4-oxo-3,4-dihydrophthalazin-1-yl)oxy)-7,9-dimethyl-14a-(((1-methylcyclopropyl)sulfonyl)carbamoyl)-5,16-dioxo-1,2,3,5,6,7,8,9,10,11,13a,14,14a,15,16,16a-hexadecahydrocyclopropa[e]pyrrolo[1,2-a][1,4]diazacyclopentadecin-6-yl)carbamate]	> 87.4	≥ 1000	> 87.4	506
